According to patent US20220378923A1, “BET DEGRADER” (KYOWA KIRIN CO., LTD., priority 2019, published 2022):

These compounds were tested on SU-DHL-4 cells (assay: Inhibitory effect on cell viability in SU-DHL-4 cell line (Test Example 1)). Conditions: Homo sapiens; SU-DHL-4 cells, 72 hours, Cell Counting Kit-8; concentration showing 90% inhibition of cell viability; read-out: SU-DHL-4 Cell Viability Inhibition Rate IC90.
Format: cell-based, human
Experimental: SU-DHL-4 cells (Code No. ACC 495, Deutsche Sammlung von Mikroorganismen and Zellkulturen GmbH; DSMZ) were cultured at 37° C. using a carbon dioxide incubator (95% air, 5% CO2) in RPMI1640 medium (Code No. 11875-093, Thermo Fisher Scientific) in which inactivated fetal bovine serum (FBS: Code No. 10099-148, Thermo Fisher Scientific) in an amount to give a final concentration of 10 vol % and penicillin/streptomycin solution (PS: […] The cells were passaged twice a week at a volume of 20-40 mL so as to maintain a cell concentration of 1×10^6 cells/mL or less. […] After seeding, the cells were precultured at 37° C. in a carbon dioxide gas incubator for 18 to 25 hours. […] At this time, the final concentration of DMSO was adjusted to be 0.1 vol %. After adding the test compound, the cells were cultured at 37° C. in a carbon dioxide gas incubator for 72 hours. Next, 0.020 mL of Cell Counting Kit-8 (Code No. CK04, DOJINDO) solution diluted 2-fold or 4-fold with phosphate buffered saline (PBS) was added to each well. Color reaction was carried out in a carbon dioxide gas incubator at 37° C. for 2 to 3 hours, and the absorbance at a wavelength of 450 nm was measured using SpectraMax 340PC (Molecular Devices). […] Absorbance of a well containing test compound • B: Absorbance of a well without addition of cells • C: Absorbance of a well without addition of test compound

Row | Structure (SMILES) | IC90 [nM]
1 | CCC(=O)N1c2ccccc2[C@H](NCC23CC(C(=O)N4CC(C(=O)Nc5ccc(N[C@@H]6C[C@H](C)N(C(=O)CC)c7ccccc76)cc5)C4)(C2)C3)C[C@@H]1C (relative stereo) [Compound 17n, 1-(3-((((2S,4R)-2-Methyl-1-propionyl-1,2,3,4-tetrahydroquinolin-4-yl)amino)methyl)bicyclo[1.1.1]pentane-1-carbonyl)-N-(4-(((2S*,4R*)-2-methyl-1-propionyl-1,2,3,4-tetrahydroquinolin-4-yl)amino)phenyl)azetidine-3-carboxamide] | 5.14

Same assay, conditions: SU-DHL-4 cells, 72 hours, Cell Counting Kit-8; concentration showing 90% inhibition of cell viability; read-out: SU-DHL-4 Cell Viability Inhibition Rate IC90

Row | Structure (SMILES) | IC90 [nM]
2 | Cc1sc2c(c1C)C(c1ccc(C(=O)NC3CCN(C(=O)c4ccc(C5=N[C@@H](CC(=O)OC(C)(C)C)c6nnc(C)n6-c6sc(C)c(C)c65)cc4)CC3)cc1)=N[C@@H](CC(=O)OC(C)(C)C)c1nnc(C)n1-2 [Compound 1i, tert-Butyl 2-((S)-4-{4-[4-(4-{(S)-6-[2-(tert-butoxy)-2-oxoethyl]-2,3,9-trimethyl-6H-thieno[3,2-f][1,2,4]triazolo[4,3-a][1,4]diazepin-4-yl}benzamide)piperidine-1-carbonyl]phenyl}-2,3,9-trimethyl-6H-thieno[3,2-f][1,2,4]triazolo[4,3-a][1,4]diazepin-6-yl)acetate] | 0.54
3 | CCC(=O)N1c2ccccc2[C@H](Nc2ccc(C(=O)N[C@H]3C[C@H](NC(=O)c4ccc(N[C@@H]5C[C@H](C)N(C(=O)CC)c6ccccc65)cc4)C3)cc2)C[C@@H]1C [Compound 1j, N,N′-[(1r,3r)-Cyclobutane-1,3-diyl]bis(4-{[(2S,4R)-2-methyl-1-propionyl-1,2,3,4-tetrahydroquinolin-4-yl]amino}benzamide)] | 33.1
4 | CCC(=O)N1c2ccccc2[C@H](Nc2ccc(C(=O)NCCNC(=O)c3ccc(C4=N[C@@H](CC(=O)OC(C)(C)C)c5nnc(C)n5-c5sc(C)c(C)c54)cc3)cc2)C[C@@H]1C [Compound 1o, tert-Butyl 2-[(S)-2,3,9-trimethyl-4-(4-{[2-(4-{[(2S,4R)-2-methyl-1-propionyl-1,2,3,4-tetrahydroquinolin-4-yl]amino}benzamide)ethyl]carbamoyl}phenyl)-6H-thieno[3,2-f][1,2,4]triazolo[4,3-a][1,4]diazepin-6-yl]acetate] | 3.18
5 | Cc1sc2c(c1C)C(c1ccc(NC(=O)CNC(=O)c3ccc(C4=N[C@@H](CC(=O)OC(C)(C)C)c5nnc(C)n5-c5sc(C)c(C)c54)cc3)cc1)=N[C@@H](CC(=O)OC(C)(C)C)c1nnc(C)n1-2 [Compound 2b, tert-Butyl 2-[(S)-4-{4-[2-(4-{(S)-6-[2-(tert-butoxy)-2-oxoethyl]-2,3,9-trimethyl-6H-thieno[3,2-f][1,2,4]triazolo[4,3-a][1,4]diazepin-4-yl}benzamide)acetamide]phenyl}-2,3,9-trimethyl-6H-thieno[3,2-f][1,2,4]triazolo[4,3-a][1,4]diazepin-6-yl]acetate] | 1.52
6 | CCC(=O)N1c2ccccc2[C@H](Nc2ccc(NC(=O)CCNS(=O)(=O)c3ccc(N[C@@H]4C[C@H](C)N(C(=O)CC)c5ccccc54)cc3)cc2)C[C@@H]1C [Compound 6e, N-(4-(((2S,4R)-2-Methyl-1-propionyl-1,2,3,4-tetrahydroquinolin-4-yl)amino)phenyl)-3-((4-(((2S,4R)-2-methyl-1-propionyl-1,2,3,4-tetrahydroquinolin-4-yl)amino)phenyl)sulfonamide)propanamide] | 4.31
7 | CCC(=O)N1c2ccccc2[C@H](Nc2ccc(C(=O)c3cnc4n3CCN(C(=O)c3ccc(N[C@@H]5C[C@H](C)N(C(=O)CC)c6ccccc65)cc3)C4)cc2)C[C@@H]1C [Compound 6f, 1,1′-((2S,2'S,4R,4R)-(((5,6,7,8-Tetrahydroimidazo[1,2-a]pyrazine-3,7-dicarbonyl)bis(4,1-phenylene))bis(azanediyl))bis(2-methyl-3,4-dihydroquinoline-4,1(2H)-diyl))bis(propan-1-one)] | 0.11
8 | CCC(=O)N1c2ccccc2[C@H](Nc2ccc(NC(=O)N3CC(NC(=O)C4CCC(N[C@@H]5C[C@H](C)N(C(=O)CC)c6ccccc65)CC4)C3)cc2)C[C@@H]1C (stereo partly drawn) [Compound 7a, 3-((1R,4r)-4-(((2S,4R)-2-Methyl-1-propionyl-1,2,3,4-tetrahydroquinolin-4-yl)amino)cyclohexane-1-carboxamide)-N-(4-(((2S,4R)-2-methyl-1-propionyl-1,2,3,4-tetrahydroquinolin-4-yl)amino)phenyl)azetidine-1-carboxamide] | 10.8
9 | CCC(=O)N1c2ccccc2[C@H](Nc2ccc(NC(=O)C3CN(C(=O)N[C@H]4CC[C@H](N[C@@H]5C[C@H](C)N(C(=O)CC)c6ccccc65)CC4)C3)cc2)C[C@@H]1C [Compound 7c, N^1-((1R,4r)-4-(((2S,4R)-2-Methyl-1-propionyl-1,2,3,4-tetrahydroquinolin-4-yl)amino)cyclohexyl)-N^3-(4-(((2S,4R)-2-methyl-1-propionyl-1,2,3,4-tetrahydroquinolin-4-yl)amino)phenyl)azetidine-1,3-dicarboxamide] | 7
10 | CCC(=O)N1c2ccccc2[C@H](Nc2ccc(NC(=O)COC(=O)N[C@H]3CC[C@H](N[C@@H]4C[C@H](C)N(C(=O)CC)c5ccccc54)CC3)cc2)C[C@@H]1C [Compound 7f, 2-((4-(((2S,4R)-2-Methyl-1-propionyl-1,2,3,4-tetrahydroquinolin-4-yl)amino)phenyl)amino)-2-oxoethyl ((1R,4R)-4-(((2S,4R)-2-methyl-1-propionyl-1,2,3,4-tetrahydroquinolin-4-yl)amino)cyclohexyl)carbamate] | 3.2
11 | CCC(=O)N1c2ccccc2[C@H](Nc2ccc(NC(=O)c3coc(N[C@H]4CC[C@H](N[C@@H]5C[C@H](C)N(C(=O)CC)c6ccccc65)CC4)n3)cc2)C[C@@H]1C [Compound 7g, 2-(((1R,4R)-4-(((2S,4R)-2-Methyl-1-propionyl-1,2,3,4-tetrahydroquinolin-4-yl)amino)cyclohexyl)amino)-N-(4-(((2S,4R)-2-methyl-1-propionyl-1,2,3,4-tetrahydroquinolin-4-yl)amino)phenyl)oxazole-4-carboxamide] | 7.56
12 | CCC(=O)N1c2ccccc2[C@H](Nc2ccc(C(=O)NCC3(N[C@H]4CC[C@H](N[C@@H]5C[C@H](C)N(C(=O)CC)c6ccccc65)CC4)COC3)cc2)C[C@@H]1C [Compound 7j, 4-(((2S,4R)-2-Methyl-1-propionyl-1,2,3,4-tetrahydroquinolin-4-yl)amino)-N-((3-(((1R,4R)-4-(((2S,4R)-2-methyl-1-propionyl-1,2,3,4-tetrahydroquinolin-4-yl)amino)cyclohexyl)amino)oxetan-3-yl)methyl)benzamide] | 64
13 | CCC(=O)N1c2ccccc2[C@H](Nc2ccc(NC(=O)COCC(=O)NC3CCC(N[C@@H]4C[C@H](C)N(C(=O)CC)c5ccccc54)CC3)cc2)C[C@@H]1C (stereo partly drawn) [Compound 8b, N-((1R,4r)-4-(((2S,4R)-2-Methyl-1-propionyl-1,2,3,4-tetrahydroquinolin-4-yl)amino)cyclohexyl)-2-(2-((4-(((2S,4R)-2-methyl-1-propionyl-1,2,3,4-tetrahydroquinolin-4-yl)amino)phenyl)amino)-2-oxyethoxy)acetamide] | 13.9
